Literature values, collected in patent US12201720B2, “Pharmaceutical composition comprising GHB gastro-retentive raft forming systems having trigger pulse drug release” (Tris Pharma, Inc., priority 2017, dated 2025).
Where two headings read alike, the source gives them in different places.

Settings: descriptive statement

Structure (SMILES): O=C(O)CCCO [Sodium oxybate]
- Solubility in water / aqueous solutions: very soluble
- Solubility in water / aqueous solutions (listed as Sodium GHB): highly water-soluble
